Experimental data taken from US6376497B1, “Antifungal azole derivatives having a fluorinated vinyl group and process for preparing same” (Korea Research Institute of Chemical Technology, priority 1999, dated 2002).

How the values were obtained:
Test in all cases: In vitro antifungal activity, microbroth dilution MIC
Assay type in all cases: cell-based
[1] = tested on: Cryptococcus neoformans IFM. 40092; conditions: for Minimal inhibitory concentration(MIC), Cry. neoformans IFM. 40092: RPMI-1640, 35° C., no growth observed; for Minimal inhibitory concentration (MIC): Cry. neoformans IFM. 40092, RPMI-1640, 35° C.
Procedure, shortened: (§1)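 Broth microdilution adapted from NCCLS M27, in RPMI-1640 with 0.165 M MOPS, pH 7.0. Yeast or mould inoculum at 2×10^3 CFU/ml was mixed 1:1 with DMSO-derived compound solutions (200 to 0.10 μg/ml before mixing) and incubated at 35 °C for 4 to 48 h. MIC was the concentration showing no growth.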

[2] = tested on: Candida krusei K. 11655; conditions: 4 to 48 hours; for Minimal inhibitory concentration(MIC), C. krusei K. 11655: RPMI-1640, 35° C., no growth observed; for Minimal inhibitory concentration (MIC): C. krusei K. 11655, RPMI-1640, 35° C.
Procedure, shortened: as §1

[3] = tested on: Cryptococcus neoformans B. 42419; conditions: 4 to 48 hours; for Minimal inhibitory concentration(MIC), Cry. neoformans B. 42419: RPMI-1640, 35° C., no growth observed; for Minimal inhibitory concentration (MIC): Cry. neoformans B. 42419, RPMI-1640, 35° C.
Procedure, shortened: as §1

[4] = tested on: Candida tropicalis A. 13803; conditions: 4 to 48 hours; for Minimal inhibitory concentration(MIC), C. tropicalis A. 13803: RPMI-1640, 35° C., no growth observed; for Minimal inhibitory concentration (MIC): C. tropicalis A. 13803, RPMI-1640, 35° C.
Procedure, shortened: as §1

[5] = tested on: Candida albicans A. 10231; conditions: 4 to 48 hours; for Minimal inhibitory concentration(MIC), C. albicans A. 10231: RPMI-1640, 35° C., no growth observed; for Minimal inhibitory concentration (MIC): C. albicans A. 10231, RPMI-1640, 35° C.
Procedure, shortened: as §1

[6] = tested on: Aspergillus niger A. 16404; conditions: for Minimal inhibitory concentration(MIC), A. niger A. 16404: RPMI-1640, 35° C., no growth observed; for Minimal inhibitory concentration (MIC): A. niger A. 16404, RPMI-1640, 35° C.
Procedure, shortened: as §1

[7] = tested on: Candida pseudotropicalis K. 11658; conditions: 4 to 48 hours; for Minimal inhibitory concentration(MIC), C. pseudotropicalis K. 11658: RPMI-1640, 35° C., no growth observed; for Minimal inhibitory concentration (MIC): C. pseudotropicalis K. 11658, RPMI-1640, 35° C.
Procedure, shortened: as §1

[8] = tested on: Torulopsis glabrata B. 16205; conditions: 4 to 48 hours; for Minimal inhibitory concentration(MIC), T. glabrata B. 16205: RPMI-1640, 35° C., no growth observed; for Minimal inhibitory concentration (MIC): T. glabrata B. 16205, RPMI-1640, 35° C.
Procedure, shortened: as §1

[9] = tested on: Cryptococcus neoformans A. 34144; conditions: for Minimal inhibitory concentration(MIC), Cry. neoformans A. 34144: RPMI-1640, 35° C., no growth observed; for Minimal inhibitory concentration (MIC): Cry. neoformans A. 34144, RPMI-1640, 35° C.
Procedure, shortened: as §1

[10] = tested on: Candida albicans IFO. 1385; conditions: 4 to 48 hours; for Minimal inhibitory concentration(MIC), C. albicans IFO. 1385: RPMI-1640, 35° C., no growth observed; for Minimal inhibitory concentration (MIC): C. albicans IFO. 1385, RPMI-1640, 35° C.
Procedure, shortened: as §1

[11] = tested on: Candida parapsitosis A. 7330; conditions: 4 to 48 hours; for Minimal inhibitory concentration(MIC), C. parapsitosis A. 7330: RPMI-1640, 35° C., no growth observed; for Minimal inhibitory concentration (MIC): C. parapsitosis A. 7330, RPMI-1640, 35° C.
Procedure, shortened: as §1

[12] = tested on: Trichophyton mentagrophytes B. 32663; conditions: for Minimal inhibitory concentration(MIC), T. mentagrophytes B. 32663: RPMI-1640, 35° C., no growth observed; for Minimal inhibitory concentration (MIC): T. mentagrophytes B. 32663, RPMI-1640, 35° C.
Procedure, shortened: as §1

[13] = tested on: Trichophyton mentagrophytes A. 9129; conditions: for Minimal inhibitory concentration(MIC), T. mentagrophytes A. 9129: RPMI-1640, 35° C., no growth observed; for Minimal inhibitory concentration (MIC): T. mentagrophytes A. 9129, RPMI-1640, 35° C.
Procedure, shortened: as §1

[14] = tested on: Candida albicans C1-2; conditions: 4 to 48 hours; for Minimal inhibitory concentration(MIC), C. albicans C1-2: RPMI-1640, 35° C., no growth observed; for Minimal inhibitory concentration (MIC): C. albicans C1-2, RPMI-1640, 35° C.
Procedure, shortened: as §1

[15] = tested on: Aspergillus furnigatus B. 19119; conditions: for Minimal inhibitory concentration(MIC), A furnigatus B. 19119: RPMI-1640, 35° C., no growth observed; for Minimal inhibitory concentration (MIC): A furnigatus B. 19119, RPMI-1640, 35° C.
Procedure, shortened: as §1

COc1ccc(C=C(F)Oc2ccc(OCC3COC(Cn4cncn4)(c4ccc(Cl)cc4Cl)O3)cc2)cc1 (mixture of isomers) [Ex. 118]
Minimal inhibitory concentration(MIC), Cry. neoformans IFM. 40092 ([1]; 4 to 48 hours): 0.39 µg/mL | Minimal inhibitory concentration(MIC), C. krusei K. 11655 [2]: >100 µg/mL | Minimal inhibitory concentration(MIC), Cry. neoformans B. 42419 [3]: 1.56 µg/mL | Minimal inhibitory concentration(MIC), C. tropicalis A. 13803 [4]: 100 µg/mL | Minimal inhibitory concentration(MIC), C. albicans A. 10231 [5]: 25.0 µg/mL | Minimal inhibitory concentration(MIC), A. niger A. 16404 ([6]; 4 to 48 hours): >100 µg/mL | Minimal inhibitory concentration(MIC), C. pseudotropicalis K. 11658 [7]: 25.0 µg/mL | Minimal inhibitory concentration(MIC), T. glabrata B. 16205 [8]: 50.0 µg/mL | Minimal inhibitory concentration(MIC), Cry. neoformans A. 34144 ([9]; 4 to 48 hours): 1.56 µg/mL | Minimal inhibitory concentration(MIC), C. albicans IFO. 1385 [10]: 1.56 µg/mL | Minimal inhibitory concentration(MIC), C. parapsitosis A. 7330 [11]: >100 µg/mL | Minimal inhibitory concentration(MIC), T. mentagrophytes B. 32663 ([12]; 4 to 48 hours): 3.13 µg/mL | Minimal inhibitory concentration(MIC), T. mentagrophytes A. 9129 ([13]; 4 to 48 hours): 6.25 µg/mL | Minimal inhibitory concentration(MIC), C. albicans C1-2 [14]: 12.5 µg/mL | Minimal inhibitory concentration(MIC), A furnigatus B. 19119 ([15]; 4 to 48 hours): >100 µg/mL

FC(Oc1ccc(OCC2COC(Cn3ccnc3)(c3ccc(Cl)cc3Cl)O2)cc1)=C(c1ccc2c(c1)OCO2)C(F)(F)F (mixture of isomers) [Ex. 99]
Minimal inhibitory concentration(MIC), Cry. neoformans IFM. 40092 ([1]; 4 to 48 hours): 0.78 µg/mL | Minimal inhibitory concentration(MIC), C. krusei K. 11655 [2]: >100 µg/mL | Minimal inhibitory concentration(MIC), Cry. neoformans B. 42419 [3]: 3.13 µg/mL | Minimal inhibitory concentration(MIC), C. tropicalis A. 13803 [4]: >100 µg/mL | Minimal inhibitory concentration(MIC), C. albicans A. 10231 [5]: 100 µg/mL | Minimal inhibitory concentration(MIC), A. niger A. 16404 ([6]; 4 to 48 hours): >100 µg/mL | Minimal inhibitory concentration(MIC), C. pseudotropicalis K. 11658 [7]: >100 µg/mL | Minimal inhibitory concentration(MIC), T. glabrata B. 16205 [8]: 100 µg/mL | Minimal inhibitory concentration(MIC), Cry. neoformans A. 34144 ([9]; 4 to 48 hours): 3.13 µg/mL | Minimal inhibitory concentration(MIC), C. albicans IFO. 1385 [10]: 3.13 µg/mL | Minimal inhibitory concentration(MIC), C. parapsitosis A. 7330 [11]: >100 µg/mL | Minimal inhibitory concentration(MIC), T. mentagrophytes B. 32663 ([12]; 4 to 48 hours): 25.0 µg/mL | Minimal inhibitory concentration(MIC), T. mentagrophytes A. 9129 ([13]; 4 to 48 hours): 50.0 µg/mL | Minimal inhibitory concentration(MIC), C. albicans C1-2 [14]: >100 µg/mL | Minimal inhibitory concentration(MIC), A furnigatus B. 19119 ([15]; 4 to 48 hours): >100 µg/mL

CCOc1ccc(C=C(F)OCC2COC(Cn3ccnc3)(c3ccc(F)cc3F)O2)cc1 (mixture of isomers) [Ex. 44]
Minimal inhibitory concentration (MIC) ([1]; 4 to 48 hours): 0.39 µg/mL | Minimal inhibitory concentration (MIC) [2]: 12.5 µg/mL | Minimal inhibitory concentration (MIC) [3]: 1.56 µg/mL | Minimal inhibitory concentration (MIC) [4]: 50.0 µg/mL | Minimal inhibitory concentration (MIC) [5]: 25.0 µg/mL | Minimal inhibitory concentration (MIC) ([6]; 4 to 48 hours): >100 µg/mL | Minimal inhibitory concentration (MIC) [7]: 6.25 µg/mL | Minimal inhibitory concentration (MIC) [8]: 6.25 µg/mL | Minimal inhibitory concentration (MIC) ([9]; 4 to 48 hours): 1.56 µg/mL | Minimal inhibitory concentration (MIC) [10]: 0.39 µg/mL | Minimal inhibitory concentration (MIC) [11]: 12.5 µg/mL | Minimal inhibitory concentration (MIC) ([12]; 4 to 48 hours): 1.56 µg/mL | Minimal inhibitory concentration (MIC) ([13]; 4 to 48 hours): 6.25 µg/mL | Minimal inhibitory concentration (MIC) [14]: 25.0 µg/mL | Minimal inhibitory concentration (MIC) ([15]; 4 to 48 hours): 12.5 µg/mL

COc1cccc(C(=C(F)N2CCN(c3ccc(OCC4COC(Cn5ccnc5)(c5ccc(F)cc5F)O4)cc3)CC2)C(F)(F)F)c1 (mixture of isomers) [Ex. 143]
Minimal inhibitory concentration(MIC), Cry. neoformans IFM. 40092 [1]: 0.78 µg/mL | Minimal inhibitory concentration(MIC), C. krusei K. 11655 [2]: 1.56 µg/mL | Minimal inhibitory concentration(MIC), Cry. neoformans B. 42419 [3]: 0.39 µg/mL | Minimal inhibitory concentration(MIC), C. tropicalis A. 13803 [4]: >100 µg/mL | Minimal inhibitory concentration(MIC), C. albicans A. 10231 [5]: >100 µg/mL | Minimal inhibitory concentration(MIC), A. niger A. 16404 [6]: >100 µg/mL | Minimal inhibitory concentration(MIC), C. pseudotropicalis K. 11658 [7]: 6.25 µg/mL | Minimal inhibitory concentration(MIC), T. glabrata B. 16205 [8]: 100 µg/mL | Minimal inhibitory concentration(MIC), Cry. neoformans A. 34144 [9]: 3.13 µg/mL | Minimal inhibitory concentration(MIC), C. albicans IFO. 1385 [10]: 0.39 µg/mL | Minimal inhibitory concentration(MIC), C. parapsitosis A. 7330 [11]: 3.13 µg/mL | Minimal inhibitory concentration(MIC), T. mentagrophytes B. 32663 [12]: 0.78 µg/mL | Minimal inhibitory concentration(MIC), T. mentagrophytes A. 9129 [13]: 6.25 µg/mL | Minimal inhibitory concentration(MIC), C. albicans C1-2 [14]: >100 µg/mL | Minimal inhibitory concentration(MIC), A furnigatus B. 19119 [15]: 100 µg/mL

FC(OCC1COC(Cn2ccnc2)(c2ccc(F)cc2F)O1)=C(c1ccccc1)C(F)(F)F (mixture of isomers) [Ex. 52]
Minimal inhibitory concentration (MIC) ([1]; 4 to 48 hours): ≦0.10 μg/ml | Minimal inhibitory concentration (MIC) [2]: 100 µg/mL | Minimal inhibitory concentration (MIC) [3]: 0.78 µg/mL | Minimal inhibitory concentration (MIC) [4]: 50.0 µg/mL | Minimal inhibitory concentration (MIC) [5]: 12.5 µg/mL | Minimal inhibitory concentration (MIC) ([6]; 4 to 48 hours): 6.25 µg/mL | Minimal inhibitory concentration (MIC) [7]: 50.0 µg/mL | Minimal inhibitory concentration (MIC) [8]: 3.13 µg/mL | Minimal inhibitory concentration (MIC) ([9]; 4 to 48 hours): 0.78 µg/mL | Minimal inhibitory concentration (MIC) [10]: 0.39 µg/mL | Minimal inhibitory concentration (MIC) [11]: >100 µg/mL | Minimal inhibitory concentration (MIC) ([12]; 4 to 48 hours): 0.78 µg/mL | Minimal inhibitory concentration (MIC) ([13]; 4 to 48 hours): 1.56 µg/mL | Minimal inhibitory concentration (MIC) [14]: 12.5 µg/mL | Minimal inhibitory concentration (MIC) ([15]; 4 to 48 hours): 1.56 µg/mL

FC(=Cc1ccccc1)OCC1COC(Cn2cncn2)(c2ccc(Cl)cc2Cl)O1 (mixture of isomers) [Ex. 69]
Minimal inhibitory concentration (MIC) ([1]; 4 to 48 hours): 0.39 µg/mL | Minimal inhibitory concentration (MIC) [2]: 12.5 µg/mL | Minimal inhibitory concentration (MIC) [3]: 1.56 µg/mL | Minimal inhibitory concentration (MIC) [4]: >100 µg/mL | Minimal inhibitory concentration (MIC) [5]: 25.0 µg/mL | Minimal inhibitory concentration (MIC) ([6]; 4 to 48 hours): 6.25 µg/mL | Minimal inhibitory concentration (MIC) [7]: 6.25 µg/mL | Minimal inhibitory concentration (MIC) [8]: 25 µg/mL | Minimal inhibitory concentration (MIC) ([9]; 4 to 48 hours): 3.13 µg/mL | Minimal inhibitory concentration (MIC) [10]: 3.13 µg/mL | Minimal inhibitory concentration (MIC) [11]: >100 µg/mL | Minimal inhibitory concentration (MIC) ([12]; 4 to 48 hours): 0.39 µg/mL | Minimal inhibitory concentration (MIC) ([13]; 4 to 48 hours): 0.78 µg/mL | Minimal inhibitory concentration (MIC) [14]: 25.0 µg/mL | Minimal inhibitory concentration (MIC) ([15]; 4 to 48 hours): 6.25 µg/mL
